{
  "source": "patent US20230413857A1",
  "about": "“COMPOSITIONS OF MICROORGANISMS AND METHODS OF USING SAME” (The State of Israel, Ministry of Agriculture & Rural …, priority 2020, published 2023)",
  "key": {"Aeromonas salmonicida": {"tested_on": "Aeromonas salmonicida", "type": "cell-based", "conditions": "200 μg"}, "Achlya bisexualis": {"tested_on": "Achlya bisexualis", "assay": "Paper disk in-vitro bioactivity assay on PDA plates", "type": "cell-based", "conditions": "PDA plate"}, "Streptococcus iniae": {"tested_on": "Streptococcus iniae", "type": "cell-based", "conditions": "200 μg"}, "Pythium aphanidermatum": {"tested_on": "Pythium aphanidermatum", "assay": "Paper disk in-vitro bioactivity assay on PDA plates", "type": "cell-based", "conditions": "PDA plate"}, "Phytophthora infestans": {"tested_on": "Phytophthora infestans", "type": "cell-based", "conditions": "200 μg on a paper disk, PDA plate"}, "Photobacterium damselae": {"tested_on": "Photobacterium damselae", "type": "cell-based", "conditions": "200 μg"}, "S. parasitica mycelia": {"tested_on": "S. parasitica mycelia", "assay": "Compound bioassays of 8-Nonenoic acid in liquid and solid media", "type": "cell-based, Saprolegnia parasitica", "conditions": "for Concentration giving full inhibition of S. parasitica growth: 19° C., 3 days", "protocol": "The inhibition activity of the compound 8-Nonenoic acid was examined in both liquid and solid media. For liquid assay, a plug of PDA harboring the S. parasitica mycelia was introduced to 1 ml of sterile double distilled water (DDW) with 10 μl of potato dextrose broth (PDB) and varying concentrations of 8-Nonenoic acid (0, 0.1, 0.5, 1, 2.5, 5, 7.5, 10, 20 μg/ml) in 48 well plate and incubated at 19° C. for 3 days. For solid assay, a plug of PDA harboring the S. parasitica mycelia was introduced to 50 mm PDA petri plates with varying concentrations of 8-Nonenoic acid (as described above) and incubated at 19° C. for 3 days. For both liquid and solid, mycelium growth radios was measured and S. parasitica plugs viability were evaluated by transferring them to fresh PDB/PDA and observing the growth developed within 3 days. All experiments were performed in triplicates."}, "Saprolegnia parasitica": {"tested_on": "Saprolegnia parasitica", "assay": "8-Nonenoic acid vs. Saprolegnia parasitica in Tilapia eggs bioassay test", "type": "in vivo, Tilapia (Oreochromis mossambicus) eggs", "conditions": "S. parasitica plugs and 10 μg/ml, one week, 26° C.", "protocol": "Tilapia (Oreochromis mossambicus) eggs, 3 days post fertilization, were collected from the hatchery at the department of fisheries in ARO the Volcani Center and brought to the lab. Eggs were rinsed with aquarium water. Eggs were introduced to 100 ml flasks (25 ml water in each flask), 6 eggs for each flask. Eggs were introduced with Saprolegnia parasitica plugs in the flask or with Saprolegnia parasitica plugs and 10 μg/ml 8-Nonenoic acid. Control eggs were not treated and/or supplemented. Flasks were incubated on a shaker under controlled conditions: 26° C., 95 rpm, and day light for a week."}},
  "data": [
    {"smiles": "CC(C)(c1ccccc1)c1ccc(O)cc1", "note": "[4-Cumylphenol]", "values": [
      {"measurement": "Inhibitory activity", "setting": "Aeromonas salmonicida", "result": "showed inhibitory activity"},
      {"measurement": "Inhibition of the oomycete mycelium", "setting": "Achlya bisexualis; 200 μg on a paper disk", "result": "showed inhibition"},
      {"measurement": "Inhibitory activity", "setting": "Streptococcus iniae", "result": "showed inhibitory activity"},
      {"measurement": "Inhibition of the oomycete mycelium", "setting": "Pythium aphanidermatum; 200 μg on a paper disk", "result": "showed inhibition"},
      {"measurement": "Inhibition of the oomycete mycelium", "setting": "Phytophthora infestans", "result": "showed inhibition"},
      {"measurement": "Inhibitory activity", "setting": "Photobacterium damselae", "result": "showed inhibitory activity"}
    ]},
    {"smiles": "C=CCCCCCCC(=O)O", "note": "[8-Nonenoic acid]", "values": [
      {"measurement": "Inhibition of the oomycote mycelium", "setting": "Achlya bisexualis; 100 μg on a paper disk", "result": "showed inhibition"},
      {"measurement": "Inhibition of S. parasitica growth", "setting": "S. parasitica mycelia; 0.1 g/ml in both water and agar", "result": "No inhibition"},
      {"measurement": "Inhibition of S. parasitica growth", "setting": "S. parasitica mycelia; 0.5-2.5 μg/ml, agar phase", "result": "no inhibition"},
      {"measurement": "Concentration at which the growth radius decreased", "setting": "S. parasitica mycelia; in agar", "result": "≥ 5", "unit": "µg/mL"},
      {"measurement": "Concentration giving full inhibition of S. parasitica growth", "setting": "S. parasitica mycelia; in agar (solid assay)", "result": 20, "unit": "µg/mL"},
      {"measurement": "Concentration giving full inhibition of S. parasitica growth", "setting": "S. parasitica mycelia; in water (liquid assay)", "result": 2.5, "unit": "µg/mL"},
      {"measurement": "Ability to inhibit S. parasitica growth (screen of compounds identified from ABp5)", "setting": "S. parasitica mycelia; purchased GC/MS-identified compounds, FIG. 13A", "result": "strong ability to inhibit"},
      {"measurement": "Viability of fully inhibited S. parasitica plugs", "setting": "S. parasitica mycelia; transferred to a new plate", "result": "complete loss of viability"},
      {"measurement": "Survival of Tilapia eggs", "setting": "Saprolegnia parasitica", "result": "did survive"},
      {"measurement": "Inhibition of the oomycote mycelium", "setting": "Pythium aphanidermatum; 100 μg on a paper disk", "result": "showed inhibition"}
    ]}
  ]
}
